Our source for the IC50 values is patent US20150031686A1, “PHENYL-OXAZOLYL DERIVATIVES, PREPARATION METHOD THEREOF, AND RELATED APPLICATION OF THE PHENYL-OXAZOLYL DERIVATIVES AS AN IMPDH INHIBITOR” (INSTITUTE OF MEDICINAL BIOTECHNOLOGY, CHINESE ACADEMY OF …, priority 2012, published 2015).

Converted amounts (≈) assume the structure as drawn.

For the assay, the system named is Coxsackie virus type B3 (COX-B3). Briefly: Anti-Coxsackie virus type B3 (COX-B3) activity, CPE in Vero cells. In kind it is cell-based. To be noted: Reed-Muench. How it is done: With Vero (African green monkey kidney) cells as viral hosts, inhibitory effects of the compounds of present invention on the grades of pathological lesions by coxsackievirus B3 (COX-B3), B6 (COX-B6) viruses in Vero cells were determined. The measured results of viral inhibitory activity of the compounds are shown in Table 3 and Table 4; wherein RBV is the control drug ribavirin. The inhibitory activities of the measured compounds against coxsackievirus B3, B6 were stronger than the control.
Screening of Anti-B3, B6 Type Coxsackie Viruses (COX-B3, COX-B6) Activity of the Samples
Prepare stock solutions of COX-B3 (or COX-B6) virus strains as well as tested compounds in DMSO before use. Before tests, dilute the stock solution with culture solution into a certain concentration and then dilute 3 times to make a total of eight dilutions. Use ribavirin (RBV) as positive control. Test procedures are as follows: seed Vero cells into 96-well culture plates, infect with 10^−5 Coxsackie virus of B3 (or B6) type, 24 hours later; adsorb subsequently for 2 hours, then discard the virus solution, add in the sample compounds and the positive control according to the abovementioned dilutions, set cell control wells and virus control wells simultaneously. When the cytopathic effect (CPE) of cells in the virus control wells reach 4+, observe CPE of the cells in each group. Use Reed-Muench method to calculate 50% inhibitory concentration (IC50) of the sample compounds against coxsackie virus B3 (or B6) type.
Regarding `COc1cc(CNCc2ccc(Br)o2)ccc1-c1cnco1` [Compound 93, N-(5-bromofuran-2-ylmethyl)-3-methoxy-4-(oxazol-5-yl) benzylamine], the IC50 was 0.88 µg/mL (≈ 2.42 µM).

For the molecule `COc1cc(NS(=O)(=O)c2ccc(C)cc2)ccc1-c1cnco1` [Compound 69], inhibition was half-maximal at 0.98 µg/mL (≈ 2.85 µM) (IC50).

For the molecule `COc1cc(NCc2ccc(-c3ccc(C(F)(F)F)cc3Cl)o2)ccc1-c1cnco1` [Compound 104, N-[5-(2-chloro-4-trifluoromethylphenyl)furan-2-ylmethyl]-3-methoxy-4-oxazol-5-yl aniline], the IC50 stood at 0.45 µg/mL (≈ 1 µM).

The molecule `CCC(=O)N(Cc1csc(C)c1)c1cc(-c2cnco2)ccc1OC` [Compound 32] had an IC50 of 0.68 µg/mL (≈ 1.91 µM).

For `COc1ccc(-c2cnco2)cc1/N=C/c1ccsc1` [Compound 39, N-(thien-3-ylmethylene)-2-methoxy-5-(oxazol-5-yl)-aniline], the IC50 amounted to 11.1 µg/mL (≈ 39.1 µM).

Consider `COc1cc(NCc2ccc(C(C)=O)s2)ccc1-c1cnco1` [Compound 101, N-(5-acetylthien-2-ylmethyl)-3-methoxy-4-oxazole-5-yl aniline], for which it took 0.48 µg/mL (≈ 1.46 µM) to reach half-maximal inhibition (IC50).

Take `COc1cc(CNc2ccc(-c3cnco3)c(OC)c2)cs1` [Compound 18, N-(5-methoxy-thien-3-ylmethyl)-3-methoxy-4(oxazol-5-yl) aniline]: the IC50 came out at 0.25 µg/mL (≈ 0.79 µM).

For `Cc1ccc(-c2cnco2)cc1NCc1c(O)ccc2ccccc12` [Compound 79, 1-(2-methyl-5-oxazol-5-ylanilino) methyl-naphthol-2], the IC50 came to 0.35 µg/mL (≈ 1.06 µM).

As for `COc1cc(NCc2csc(Br)c2)ccc1-c1cnco1` [Compound 15, N-(5-bromothien-3-ylmethyl)-3-methoxy-4-(oxazol-5-yl) aniline], the IC50 is 0.46 µg/mL (≈ 1.26 µM).

Consider `COc1cc(NS(=O)(=O)c2cccs2)ccc1-c1cnco1` [Compound 98, N-(thien-2-ylsulfonyl)-3-methoxy-4-oxazole-5-yl aniline], for which the midpoint of inhibition, the IC50, lay at 0.88 µg/mL (≈ 2.62 µM).

`COc1ccc(-c2cnco2)cc1NCc1ccc(Br)o1` [Compound 45, N-(5-bromofuran-2-ylmethyl)-2-methoxy-5-(oxazol-5-yl) aniline] yielded an IC50 of 0.88 µg/mL (≈ 2.52 µM).

Take `Cc1ccc(CNCc2ccc(-c3cnco3)c(Cl)c2)s1` [Compound 89, N-(5-methylthien-2-ylmethyl)-3-chloride-4-oxazol-5-yl benzylamine]: the IC50 was 0.26 µg/mL (≈ 0.815 µM).

In turn, `COc1cc(CNCc2cccc3nonc23)ccc1-c1cnco1` [Compound 78, N-(benzo[1,2,5]oxadiazol-4-ylmethyl)-3-methoxy-4(oxazol-5-yl) benzylamine] showed an IC50 of 0.36 µg/mL (≈ 1.07 µM).

Take `COc1cc(NCc2ccc3sccc3c2)ccc1-c1cnco1` [Compound 106, N-(benzothien-5-ylmethyl)-3-methoxy-4-oxazol-5-yl aniline]: half-maximal inhibition (IC50) required 0.44 µg/mL (≈ 1.31 µM).

Molecule `COc1ccc(-c2cnco2)cc1NCc1ccc(-c2ccccc2)s1` [Compound 26, N-(5-phenylthien-2-ylmethyl)-2-methoxy-5-(oxazol-5-yl) aniline] displayed an IC50 of 0.57 µg/mL (≈ 1.57 µM).

`COc1ccc(-c2cnco2)cc1NCc1csc2c(C)c(Br)ccc12` [Compound 40, N-(6-bromo-7-methyl-benzothien-3-ylmethyl)-2-methoxy-5-oxazol-5-yl aniline] gave an IC50 of 0.26 µg/mL (≈ 0.606 µM).

`COc1ccc(-c2cnco2)cc1NCc1cc2cc(Cl)ccc2s1` [Compound 30, N-(5-chlorobenzothien-2-ylmethyl)-2-methoxy-5-(oxazol-5-yl) aniline] gave an IC50 of 0.54 µg/mL (≈ 1.46 µM).

Regarding `COc1ccc(-c2cnco2)cc1NCc1cnn(-c2ccccc2)n1` [Compound 28, N-(2-phenyl-2H-1,2,3-triazol-4-ylmethyl)-(2-methoxy-5-oxazole-5-yl) aniline], the IC50 was determined as 1.23 µg/mL (≈ 3.54 µM).

Molecule `COc1cc(N(CCc2cc3ccccc3s2)C(=O)C(C)Br)ccc1-c1cnco1` (centres unmarked) [Compound 80, N-(2-benzothien-2-yl-ethyl)-N-(3-methoxy-4-oxazol-5-yl)-2-bromopropionamide] showed an IC50 of 0.24 µg/mL (≈ 0.494 µM).

Regarding `COc1cc(NCC2=COc3ccc(O)cc3C2)ccc1-c1cnco1` [Compound 92, 3-(3-methoxy-4-oxazol-5-ylanilino) methyl-4-H-benzopyran-6-ol], the IC50 was 0.63 µg/mL (≈ 1.8 µM).

Molecule `COc1cc(CN(Cc2cc3cc(C)ccc3s2)S(C)(=O)=O)ccc1-c1cnco1` [Compound 84, N-(3-methoxy-4-oxazol-5-yl-benzyl)-N-(5-methyl-benzothien-2-ylmethyl)-methylsulfonamide] yielded an IC50 of 0.34 µg/mL (≈ 0.768 µM).

As for `COc1cc(NCc2nc3ccccc3s2)ccc1-c1cnco1` [Compound 8, N-(benzothiazol-2-ylmethyl)-3-methoxy-4-(oxazol-5-yl) aniline], the IC50 was 0.45 µg/mL (≈ 1.33 µM).

Regarding `COc1cc(NCc2ccc(CO)o2)ccc1-c1cnco1` [Compound 96], the IC50 is 1.43 µg/mL (≈ 4.76 µM).

`COc1cc(NCC2=C(Cl)c3cc(Cl)ccc3SC2)ccc1-c1cnco1` [Compound 83, N-(4,6-dichloro-2H-sulfurbenzopyran-3-ylmethyl)-3-methoxy-4-(oxazol-5-yl) aniline] returned an IC50 of 0.42 µg/mL (≈ 1 µM).

As to `COc1cc(NCCc2ccc(Br)s2)ccc1-c1cnco1` [Compound 73, N-[2-(5-bromothien-2-yl)-ethyl]-3-methoxy-4-(oxazol-5-yl) aniline], half-maximal inhibition (IC50) was put at 0.35 µg/mL (≈ 0.923 µM).

On to `COc1cc(NCc2ccc3c(c2)CCO3)ccc1-c1cnco1` [Compound 100, N-(2,3-dihydobenzofuro-5-ylmethyl)-3-methoxy-4-(oxazol-5-yl) aniline], for which 0.46 µg/mL (≈ 1.43 µM) corresponded to half-maximal inhibition (IC50).

For `COc1ccc(-c2cnco2)cc1NCc1ccsc1` [Compound 31, N-(thien-3-ylmethyl)-2-methoxy-5-(oxazol-5-yl) aniline], the IC50 is 0.88 µg/mL (≈ 3.07 µM).

Regarding `COc1cc(CN(C)Cc2csc3ccc(Cl)cc23)ccc1-c1cnco1` [Compound 87, N-methyl-N-(5-chlorobenzothien-3-ylmethyl)-3-methoxy-4-(oxazol-5-yl) benzylamine], the IC50 amounted to 0.35 µg/mL (≈ 0.877 µM).

Molecule `COc1ccc(-c2cnco2)cc1NCc1csc(-c2ccccc2)c1` [Compound 36, N-(5-phenylthien-3-ylmethyl)-2-methoxy-5-(oxazol-5-yl) aniline] had an IC50 of 0.59 µg/mL (≈ 1.63 µM).

Regarding `COc1cc(NCc2ccc(C(=O)Nc3cc(OC)c(OC)c(OC)c3)o2)ccc1-c1cnco1` [Compound 47, N-2-(3,4,5-trimethoxyphenylaminocarbonyl) furan-5-ylmethyl 3-methoxy-4-(oxazol-5-yl)aniline], the IC50 was determined as 0.56 µg/mL (≈ 1.17 µM).

For the molecule `COCc1ccc(CNc2cc(-c3cnco3)ccc2OC)o1` [Compound 48, N-(5-methoxymethylfuran-2-ylmethyl)-2-methoxy-5-(oxazol-5-yl) aniline], the IC50 turned out to be 0.5 µg/mL (≈ 1.59 µM).

The molecule `COc1cc(/N=C/c2csc(C)c2)ccc1-c1cnco1` [Compound 19, N-(5-methylthien-3-ylmethylene)-3-methoxy-4-(oxazol-5-yl) aniline] came in with an IC50 of 12.8 µg/mL (≈ 43 µM).

On to `COc1ccc(-c2cnco2)cc1NCc1coc2ccccc12` [Compound 50, N-(benzofuran-3-ylmethyl)-2-methoxy-5-(oxazol-5-yl) aniline], for which the IC50 turned out to be 0.46 µg/mL (≈ 1.44 µM).

Molecule `COc1cc(CNCc2ccc3c(cnn3C)c2)ccc1-c1cnco1` [Compound 86, N-(1-methyl-1H-indazole-5-methyl)-3-methoxy-4-(oxazol-5-yl) benzylamine] came in with an IC50 of 0.34 µg/mL (≈ 0.976 µM).

`COc1cc(NCCc2noc3ccccc23)ccc1-c1cnco1` [Compound 74, N-(1,2-benzisoxazol-3-ylethyl)-3-methoxy-4-(oxazol-5-yl) aniline] came in with an IC50 of 0.63 µg/mL (≈ 1.88 µM).

For orientation: IC50 means the concentration needed to halve the response being measured. Low values mean greater potency, high ones weaker potency.
